In one experiment the test system is Human cell-line SKOV3. Briefly: Cell transduction visualised with FITC-conjugated anti-HIS antibody. The experiment is classed as cell-based. The settings on record: 0.01 mg/mL, 1 hour at 37° C. The procedure:
Human cell-line SKOV3 was cultured in DMEM media with 10% serum at 37° C., 5% CO2 until 40% confluency in a 96-well culture dish. The media was removed and replaced with 0.1 mL tissue culture-grade PBS and unmodified ANTP, unmodified MAML and ANTP-PEG-2-MAML were added to a final concentration of 0.01 mg/mL. Cell transduction was allowed to proceed for 1 hour at 37° C. Next, the PBS was removed and replaced with DMEM/serum and the cells were grown overnight as above. The transduced cells were then fixed using 1% glutaraldehyde at room temperature for 1 hr and permeabilized using Saponin at 1% concentration for 20 minutes at room temperature. Cells were then washed with PBS and visualized using FITC-conjugated-anti-HIS antibody (Miltenyi Biotech). Imaging was done using a GE-Incell-500 analyser visualizing the green fluorescence of the FITC at around 525 nm. […] This confirms the functionality of the ANTP-PEG-2-MAML protein.

The next experiment relates to SKOV-3 tumour cells. Briefly: Intranuclear trafficking into cancer cells, scored by immunofluorescence. Type of experiment: cell-based, human. The following applies: free protein alone. The source says:
FIG. 2 Intranuclear trafficking of ANTP and ANTP-p21 conjugates into the nuclei of SKOV-3 tumour cells.
Cells, into which the protein had penetrated intranuclearly, were scored positive by immunofluorescence.

“Also recorded” adds a separate entry of the source.

As for “ANTP: Antennapedia cell-penetrating peptide, 60 amino acid sequence, recombinant”, in the experiment with Human cell-line SKOV3, the “MAML-His protein seen inside the cell cytosol and cell nucleus” value was “not”.
Consider p21: free tumour-suppressor protein p21, for which, in the experiment on SKOV-3 tumour cells, the “cellular uptake / translocation to the nuclei” value is “No cellular uptake; also recorded: did not translocate to the nuclei”.

B1: MAML: unmodified recombinant MAML protein bearing a HIS-Tag (protein)
chain: LPRHSAVMERLRRRIELCRRHHSTCEARYEAVSPERLELERQHTFALHQRCIQAKAKRAGKH
modifications: also: His-tag, place not given here
B1: the “MAML-His protein seen inside the cell cytosol and cell nucleus” value with Human cell-line SKOV3 is on record as “not”.

The values above are taken from US20240052005A1, “IMPROVED CELL-PENETRATING PEPTIDES AND FUSION PROTEINS” (ANASTASIS BIOTEC LIMITED, priority 2020, published 2024).
